{
  "source": "patent US20090258052A1",
  "about": "“COMPOUNDS AND METHODS FOR ALTERING BONE GROWTH” (OsteoGeneX Inc., priority 2008, published 2009)",
  "key": {"C57BL/6 mice": {"test_system": "C57BL/6 mice", "assay": "Bone growth study in mice, daily i.p. for 30 days; serum osteocalcin by EIA Elisa", "assay_type": "in vivo", "details": "four month old male C57BL/6 mice", "protocol": "Four month old male C57BL/6 mice were treated daily with saline vehicle or sclerostin inhibitors at low, mid, or high doses (via i.p) for 30 days. Study endpoints included a biochemical marker of bone formation, osteocalcin measured by EIA Elisa, and measurement of trabecular bone volume by mico-CT analysis on both the proximal tibia and L5 vertebra."}, "SOST (Sclerostin)": {"test_system": "SOST (Sclerostin)", "assay": "Assay for identification of SOST antagonists promoting bone growth (J Bone Miner Res 2006, 21(11), 1738-1749)", "excerpt": "Compounds useful in the methods of the present invention can be identified via a variety of methods known to one of skill in the art. Several exemplary methods for identifying such antagonists are described herein, including cell-based and in vitro techniques (Journal of Bone and Mineral Research 2006, 21(11), 1738-1749). A general method of identifying SOST antagonists involves evaluating the effects of antagonist candidates on bone formation under controlled conditions. Preferably bone formation is determined using micro-CT techniques on live animals. Preferred animals include rodents, more preferred are primates. Femur, tibia and vertebrae bones are particularly useful subjects for such study.\nBriefly, the test animal is treated with a predetermined dose of a SOST antagonist candidate. A control animal is treated with a control solution, preferably a non-irritating buffer solution or other carrier.\nOnce the dosing schedule has been completed, both test and control animals are examined to determine the quantity of bone formation present. This can be accomplished by any suitable method, but is preferably performed on live animals to analyze the bone mineral content. Methods for micro-CT examination of bones in animals are well known in the art. […] Where necessary, levels of bone formation can be calculated by determining the volume of bone formation present in each animal. […]"}},
  "data": [
    {"smiles": "O=c1[nH]nc(SCCO)c(=O)[nH]1", "note": "[OGX-21]", "values": [
      {"measurement": "percent increase in serum osteocalcin over baseline", "setting": "C57BL/6 mice; 10 mg/kg (A)", "result": 2, "unit": "%"},
      {"measurement": "percent increase in serum osteocalcin over baseline", "setting": "C57BL/6 mice; 20 mg/kg (B)", "result": 28, "unit": "%"},
      {"measurement": "percent increase in serum osteocalcin over baseline", "setting": "C57BL/6 mice; 30 mg/kg (C)", "result": 15, "unit": "%"},
      {"measurement": "modulation of the Wnt pathway", "setting": "SOST (Sclerostin); FIG. 1", "result": "modulating the Wnt pathway"},
      {"measurement": "promotion of bone growth", "setting": "SOST (Sclerostin); identification assay", "result": "promoting bone growth"}
    ]}
  ]
}
